Data taken from the PolyMetriX glass transition set.
± gives the standard deviation of the reports.

glass transition temperature | SMILES
70.00 °C | *Oc1ccc(CC(NC(=O)CCc2ccc(OC(=O)CCCC(*)=O)cc2)C(=O)OCC)cc1 (repeat unit)
132.00 °C | */C=C/c1ccc(N(c2ccc(/C=C/c3ccc4c5ccc(*)cc5n(CC(CC)CCCC)c4c3)cc2)c2ccc(OCC(CC)CCCC)cc2)cc1 (repeat unit)
118.00 °C | *CC(*)(C)C(=O)Oc1ccc(C(=O)c2ccccc2)cc1 (repeat unit)
342.00 °C | *C(=O)Nc1ccc(C2(c3ccc(N4C(=O)c5ccc(*)cc5C4=O)cc3)CCC(C(C)(C)CC)CC2)cc1 (repeat unit)
135.00 °C | *Oc1ccc(OC(=O)c2ccc(Sc3cccc(OC(=O)c4ccc(C(=O)Oc5cccc(Sc6ccc(C(*)=O)cc6)c5)cc4)c3)cc2)cc1C (repeat unit)
90.00 °C | *C(=O)OCCCCCOC(=O)c1ccc(N2C(=O)c3ccc(*)cc3C2=O)cc1 (repeat unit)
139.00 °C | *CCCC(=O)NNC(=O)c1ccc(C(=O)NNC(=O)CCCOc2ccc(O*)c(C)c2)cc1 (repeat unit)
193.00 °C | */C(=C/c1cc(OC)c(/C=C(/c2ccc(*)cc2)c2ccc(F)cc2)cc1OC)c1ccc(F)cc1 (repeat unit)
365.00 °C | *c1ccc(Oc2ccc(-c3cc(-c4ccccc4)c4cc5nc(*)cc(-c6ccccc6)c5cc4n3)cc2)cc1 (repeat unit)
91.00 °C | *c1ccc(C(=O)NC(CC)COC(=O)c2ccc(N3C(=O)CC(SCCCCCSC4CC(=O)N(*)C4=O)C3=O)cc2)cc1 (repeat unit)
179.00 °C | *C(=O)c1ccc(C(=O)N(*)c2ccccc2)cc1 (repeat unit)
158.17 °C | *Oc1c(C)cc(-c2cc(C)c(Oc3ccc(C(=O)c4ccc(*)cc4)cc3)c(CBr)c2)cc1CBr (repeat unit)
61.00 °C | *CC1CCC(COC(C)OC(=O)c2ccc(C(=O)OC(C)O*)cc2)CC1 (repeat unit)
53.00 °C | *CCCCCOc1ccc(C(=O)OC(=O)c2ccc(O*)cc2)cc1 (repeat unit)
44.00 °C | */C=C/c1cc(OCCCCCCCCC)c(/C=C/c2ccc(*)cc2)cc1OCCCCCCCCC (repeat unit)
430.00 °C | *c1ccc(-c2nc3cc(-c4ccc5oc(*)nc5c4)ccc3o2)cc1 (repeat unit)
420.00 °C | */C=C(/*)c1ccc(-n2c(=O)c3cc4c(=O)n(-c5ccc(C#C)cc5)c(=O)c4cc3c2=O)cc1 (repeat unit)
23.00 °C | *Oc1cc(OC(=O)c2ccc(OCCCCCCCCCCCC)cc2)c(OC(=O)CCCC(*)=O)cc1OC(=O)c1ccc(OCCCCCCCCCCCC)cc1 (repeat unit)
55.00 °C | *c1ncnc(N(CCCCCCCCCCN(*)c2ccccc2)c2ccccc2)n1 (repeat unit)
39.00 °C | *CCCCCCCCCCCCCCCCOC(=O)NCCCCCCNC(=O)O* (repeat unit)
110.00 °C | *CC(*)C(=O)Oc1ccc(-c2ccccc2)cc1 (repeat unit)
167.00 °C | *c1ccc2c(c1)C(=O)N(c1ccc(OCCCCCCOc3ccc(N4C(=O)c5ccc(C(*)(C(F)(F)F)C(F)(F)F)cc5C4=O)cc3)cc1)C2=O (repeat unit)
303.00 °C | *c1ccc2c(c1)C(=O)N(c1cc(Br)c(Oc3c(Br)cc(N4C(=O)c5ccc(C(*)(C(F)(F)F)C(F)(F)F)cc5C4=O)cc3Br)c(Br)c1)C2=O (repeat unit)
50.90 °C | *CC(OC(=O)C(CC(C)C)NC(=O)OCc1ccccc1)C(COC(=O)O*)OC(=O)C(CC(C)C)NC(=O)OCc1ccccc1 (repeat unit)
54.00 °C | *CCCCCCCCNC(=O)CCCCCCCCC(=O)N* (repeat unit)
163.00 °C | *Oc1ccc(S(=O)(=O)c2ccc(Oc3ccc(C(C)(CCC(=O)O)c4ccc(*)cc4)cc3)cc2)cc1 (repeat unit)
59.50 °C | *CC(*)OC(=O)c1ccccc1OC(C)=O (repeat unit)
274.00 °C | *c1ccc(Oc2ccc(S(=O)(=O)c3ccc(Oc4ccc(N5C(=O)c6ccc(S(=O)(=O)c7ccc8c(c7)C(=O)N(*)C8=O)cc6C5=O)cc4)cc3)cc2)cc1 (repeat unit)

glass transition temperature | SMILES
98.92 ± 0.1 °C | *CC(*)c1ccc(C(=O)c2ccc(C)cc2)cc1 (repeat unit) [Poly(4-p-toluoylstyrene)]
248.00 °C | */C=C/C1CC(*)C2C(=O)N(c3ccccc3C)C(=O)C12 (repeat unit)
-0.30 °C | *CCCCCCOC(=O)OCCCCCCOC(=O)OCCCCCCOc1ccc(C(=O)c2ccc(O*)cc2)cc1 (repeat unit)
256.00 °C | *c1ccc(C(c2ccc(N3C(=O)c4ccc(Oc5cc6ccccc6cc5Oc5ccc6c(c5)C(=O)N(*)C6=O)cc4C3=O)cc2)(C(F)(F)F)C(F)(F)F)cc1 (repeat unit)
48.00 °C | *CCCC(O)CN(CCCC)c1ccc(C#Cc2ccc(S(*)(=O)=O)cc2)cc1 (repeat unit)
219.00 °C | *Oc1c(-c2ccccc2)cc(*)cc1-c1cccc(C)c1 (repeat unit)
321.00 °C | *Nc1ccc(NC(=O)c2cc(NC(=O)c3ccccc3)cc(C(*)=O)c2)cc1 (repeat unit)
320.00 °C | *c1ccc(Oc2ccc(-c3ccc(Oc4ccc(-c5nnc(*)c6c(-c7ccc(F)cc7)c(-c7ccc(F)cc7)c(-c7ccc(F)cc7)c(-c7ccc(F)cc7)c56)cc4)cc3)cc2)cc1 (repeat unit)
89.00 °C | *CCCCCC(=O)Oc1ccc(OC(=O)c2ccc3c(c2)C(=O)N(*)C3=O)cc1 (repeat unit)
38.00 °C | */C=C/c1cc(OCCCCCCCCCCCC)c(/C=C/c2ccc(*)cc2)cc1OCCCCCCCCCCCC (repeat unit)
121.00 °C | *CC(*)OC(=O)c1ccc(C(C)(C)C)cc1 (repeat unit)
24.00 °C | */C=C/C1CC(*)C([Si](C)(C)C[Si](C)(C)C)C1 (repeat unit)
98.00 °C | *CCOC(=O)Nc1ccc(Cc2ccc(NC(=O)OCCOc3ccc(O*)cc3)cc2)cc1 (repeat unit)
261.00 °C | *CC(*)(C)C(=O)OCC[N+](C)(C)CCCCS(=O)(=O)O (repeat unit)
176.00 °C | *C1C(*)C2CC1C(COCc1ccccc1)C2COCc1ccccc1 (repeat unit)
234.00 °C | *Oc1c(-c2ccccc2)cc(*)cc1-c1cccc2ccccc12 (repeat unit)
180.00 °C | *Oc1ccc(NC(=O)c2cccc(C(=O)Nc3ccc(Oc4ccc(C(C)(C)c5cccc(C(C)(C)c6ccc(*)cc6)c5)cc4)cc3)c2)cc1 (repeat unit)
30.00 °C | *Oc1ccc(OC(=O)c2cc(OCCCCCCCCCCOCC3CCCN3c3ccc([N+](=O)[O-])cc3)c(C(*)=O)cc2OCCCCCCCCCCOCC2CCCN2c2ccc([N+](=O)[O-])cc2)cc1 (repeat unit)
226.00 °C | *c1ccc(CC(=O)Nc2ccc(Oc3ccc(NC(=O)Cc4ccc(-c5sc(*)c(-c6ccccc6)c5-c5ccccc5)cc4)cc3)cc2)cc1 (repeat unit)
54.00 °C | *CCN(CCOC(=O)CCCCC(=O)O*)c1ccc(/C=N/N(c2ccccc2)c2ccccc2)cc1 (repeat unit)
157.00 °C | *Nc1ccc(C(C)(C)c2ccc(C(C)(C)c3ccc(Nc4ccc(C(=O)c5ccc(C(=O)c6ccc(*)cc6)cc5)cc4)cc3)cc2)cc1 (repeat unit)
125.00 °C | *CCCCCCCCCCC(=O)Nc1ccc(NC(=O)CCCCCCCCCCN2C(=O)c3ccc(C(=O)c4ccc5c(c4)C(=O)N(*)C5=O)cc3C2=O)cc1 (repeat unit)
40.00 °C | *CC(*)(C)C(=O)OCCCCCCCCCCn1c2ccccc2c2cc(/C=C(\C#N)c3ccc([N+](=O)[O-])cc3)ccc21 (repeat unit)
280.00 °C | *c1ccc2c(c1)C(=O)N(c1ccc(-c3ccc(N4C(=O)c5ccc(C(*)(c6ccccc6)C(F)(F)F)cc5C4=O)cc3C(F)(F)F)c(C(F)(F)F)c1)C2=O (repeat unit)
130.00 °C | *Oc1cc(OC(=O)c2ccc(C(*)=O)cc2)cc(C(=O)OCCN(CC)c2ccc(/N=N/c3ccc([N+](=O)[O-])cc3)cc2)c1 (repeat unit)
94.50 °C | *CC(*)(CC(=O)Oc1ccc(OCCC)cc1)C(=O)Oc1ccc(OCCC)cc1 (repeat unit)
264.80 °C | *c1ccc2c(c1)C(=O)N(c1cc(Oc3c(C)cc(-c4cc(C)c(Oc5cc(N6C(=O)c7ccc(C(*)(C(F)(F)F)C(F)(F)F)cc7C6=O)cc(C(F)(F)F)c5)c(C)c4)cc3C)cc(C(F)(F)F)c1)C2=O (repeat unit)

SMILES | glass transition temperature
*C(=O)Nc1cccc(P(=O)(c2ccccc2)c2cccc(NC(=O)c3ccc4c(c3)C(=O)N(c3cccc(P(=O)(c5ccccc5)c5cccc(N6C(=O)c7ccc(*)cc7C6=O)c5)c3)C4=O)c2)c1 (repeat unit) | 206.00 °C
*OP(=O)(Oc1ccc(C(C)(C)c2ccc(*)cc2)cc1)Oc1c(Cl)c(Cl)c(Cl)c(Cl)c1Cl (repeat unit) | 130.00 °C
*O[Si](C)(C)c1cccc([Si](*)(C)C)c1 (repeat unit) | -48.00 °C
*CC(*)(C)C(=O)OCCCCCC (repeat unit) [poly(hexyl methacrylate)] | -6.6 ± 7.2 °C
*OP(=O)(Oc1ccccc1)Oc1ccc(C(C)(C)c2ccc(*)cc2)cc1 (repeat unit) | 74.50 °C
*N(C)[Si](C)(C)N(C)[Si](*)(C)CC (repeat unit) | -20.00 °C
*/C(C)=C(/*)c1ccc([Si](C)(C)C)cc1 (repeat unit) | -5.00 °C
*CC(*)OC(=O)c1ccccc1OC (repeat unit) | 65.00 °C
*CC(*)SC (repeat unit) [Poly(vinyl methyl sulfide) ] | -1 ± 1.2 °C
*Nc1ccc(C(c2ccc(NC(=O)c3ccc(C(c4ccc(C(*)=O)cc4)(C(F)(F)F)C(F)(F)F)cc3)cc2)(P2(=O)Oc3ccccc3-c3ccccc32)P2(=O)Oc3ccccc3-c3ccccc32)cc1 (repeat unit) | 235.00 °C
